Assay results from ChEMBL document CHEMBL1201862, “PubChem BioAssay data set” (2004).
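Protocol summary: plate cells (96-well), add compound at 5 concentrations, incubate 48 h, interpolate endpoints linearly. GI50: concentration for 50% inhibition of growth.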 The source made the active and inactive calls. No stated cut-off is given here; in the data, active = GI50 up to about 1.1 µM and inactive = higher.

Experiments:
Test in all cases: DTP human tumour cell line panel, 48 h
SNB-19 = tested on: SNB-19
T47D = tested on: T47D
OVCAR-3 = tested on: OVCAR-3
CCRF-CEM = tested on: CCRF-CEM
IGROV-1 = tested on: IGROV-1
786-0 = tested on: 786-0
Hs-578T = tested on: Hs-578T
UACC-62 = tested on: UACC-62
SW-620 = tested on: SW-620
SF-295 = tested on: SF-295
CAKI-1 = tested on: CAKI-1
MDA-MB-435 = tested on: MDA-MB-435
BT-549 = tested on: BT-549
RPMI-8226 = tested on: RPMI-8226
NCI-H23 = tested on: NCI-H23
Malme-3M = tested on: Malme-3M
COLO 205 = tested on: COLO 205
TK-10 = tested on: TK-10
MCF7 = tested on: MCF7
SN12C = tested on: SN12C
NCI/ADR-RES = tested on: NCI/ADR-RES
OVCAR-8 = tested on: OVCAR-8
SK-MEL-2 = tested on: SK-MEL-2
HL-60 = tested on: HL-60
HCT-15 = tested on: HCT-15
NCI-H226 = tested on: NCI-H226
K562 = tested on: K562
M14 = tested on: M14
KM12 = tested on: KM12
SF-268 = tested on: SF-268
MDA-MB-231 = tested on: MDA-MB-231
SF-539 = tested on: SF-539
EKVX = tested on: EKVX
HT-29 = tested on: HT-29
HOP-62 = tested on: HOP-62
A549 = tested on: A549
HOP-92 = tested on: HOP-92
HCC 2998 = tested on: HCC 2998
RXF 393 = tested on: RXF 393
SK-OV-3 = tested on: SK-OV-3
SK-MEL-28 = tested on: SK-MEL-28
UACC-257 = tested on: UACC-257
NCI-H522 = tested on: NCI-H522
U-251 = tested on: U-251
OVCAR-4 = tested on: OVCAR-4
PC-3 = tested on: PC-3
HCT-116 = tested on: HCT-116
OVCAR-5 = tested on: OVCAR-5
NCI-H460 = tested on: NCI-H460
SK-MEL-5 = tested on: SK-MEL-5
UO-31 = tested on: UO-31
A498 = tested on: A498
SNB-75 = tested on: SNB-75
MOLT-4 = tested on: MOLT-4
DU-145 = tested on: DU-145
ACHN = tested on: ACHN
SR = tested on: SR
LOX IMVI = tested on: LOX IMVI
MDA-N = tested on: MDA-N

For `C=C1c2nc3ccccc3n2C=C(c2ccc(C)cc2)N1c1ccccc1`, the GI50 (SNB-19) was 4.04 µM (inactive), the GI50 (T47D) was 3.24 µM (inactive) and the GI50 (OVCAR-3) was 2.38 µM (inactive). For the same molecule, the GI50 (CCRF-CEM) was 3.3 µM (inactive), the GI50 (IGROV-1) was 3.33 µM (inactive) and the GI50 (786-0) was 3.48 µM (inactive). For the same molecule, the GI50 (Hs-578T) was 4.21 µM (inactive), the GI50 (UACC-62) was 2.86 µM (inactive) and the GI50 (SW-620) was 1.67 µM (inactive). For the same molecule, the GI50 (SF-295) was 1.88 µM (inactive), the GI50 (CAKI-1) was 20.5 µM (inactive) and the GI50 (MDA-MB-435) was 0.439 µM (active). The GI50 (BT-549) was 7.78 µM (inactive), the GI50 (RPMI-8226) was 2.3 µM (inactive) and the GI50 (NCI-H23) was 4.02 µM (inactive). The GI50 (Malme-3M) was 2.62 µM (inactive), the GI50 (COLO 205) was 3.04 µM (inactive) and the GI50 (TK-10) was 18.8 µM (inactive). The GI50 (MCF7) was 2.47 µM (inactive), the GI50 (SN12C) was 6.22 µM (inactive) and the GI50 (NCI/ADR-RES) was 1.79 µM (inactive). For the same molecule, the GI50 (OVCAR-8) was 5.14 µM (inactive), the GI50 (SK-MEL-2) was 4.49 µM (inactive) and the GI50 (HL-60) was 1.85 µM (inactive). The GI50 (HCT-15) was 1.47 µM, the GI50 (NCI-H226) was 2.43 µM (inactive) and the GI50 (K562) was 1.11 µM (active). For the same molecule, the GI50 (M14) was 3.12 µM (inactive), the GI50 (KM12) was 1.1 µM (active) and the GI50 (SF-268) was 12.9 µM (inactive). The GI50 (MDA-MB-231) was 4.92 µM (inactive), the GI50 (SF-539) was 2.44 µM (inactive) and the GI50 (EKVX) was 2.9 µM (inactive). For the same molecule, the GI50 (HT-29) was 1.61 µM (inactive), the GI50 (HOP-62) was 6.49 µM (inactive) and the GI50 (A549) was 5.55 µM (inactive). For the same molecule, the GI50 (HOP-92) was 27.1 µM (inactive), the GI50 (HCC 2998) was 2.26 µM (inactive) and the GI50 (RXF 393) was 3.36 µM (inactive). For the same molecule, the GI50 (SK-OV-3) was 7.45 µM (inactive), the GI50 (SK-MEL-28) was 5.58 µM (inactive) and the GI50 (UACC-257) was 7.93 µM (inactive). For the same molecule, the GI50 (NCI-H522) was 0.617 µM (active), the GI50 (U-251) was 3.27 µM (inactive) and the GI50 (OVCAR-4) was 22.4 µM (inactive). For the same molecule, the GI50 (PC-3) was 2.75 µM (inactive), the GI50 (HCT-116) was 2.9 µM (inactive) and the GI50 (OVCAR-5) was 20.7 µM (inactive). The GI50 (NCI-H460) was 2.88 µM (inactive), the GI50 (SK-MEL-5) was 2.13 µM (inactive) and the GI50 (UO-31) was 9.62 µM (inactive). For the same molecule, the GI50 (A498) was 4.53 µM (inactive), the GI50 (SNB-75) was 2.08 µM (inactive) and the GI50 (MOLT-4) was 4.41 µM (inactive). The GI50 (DU-145) was 3.9 µM (inactive), the GI50 (ACHN) was 15.1 µM (inactive) and the GI50 (SR) was 0.445 µM (active). For the same molecule, the GI50 (LOX IMVI) was 5.24 µM (inactive) and the GI50 (MDA-N) was 0.508 µM (active).

`O=C1C(/N=N/c2ccc(-c3nc4ccccc4[nH]3)cc2)NC(=S)N1c1ccccc1` (stereo not drawn) was tested, and the GI50 (SNB-19) was > 100 µM (inactive), the GI50 (T47D) was 18.8 µM (inactive) and the GI50 (OVCAR-3) was > 100 µM (inactive). The GI50 (CCRF-CEM) was 10.7 µM (inactive), the GI50 (IGROV-1) was 40.2 µM (inactive) and the GI50 (786-0) was 18.9 µM (inactive). The GI50 (Hs-578T) was > 100 µM (inactive), the GI50 (UACC-62) was > 100 µM (inactive) and the GI50 (SW-620) was 28.1 µM (inactive). The GI50 (SF-295) was 91.6 µM (inactive), the GI50 (CAKI-1) was > 100 µM (inactive) and the GI50 (MDA-MB-435) was 67.3 µM (inactive). For the same molecule, the GI50 (BT-549) was > 100 µM (inactive), the GI50 (RPMI-8226) was 22.1 µM (inactive) and the GI50 (NCI-H23) was 57.4 µM (inactive). For the same molecule, the GI50 (Malme-3M) was > 100 µM (inactive), the GI50 (COLO 205) was 73.6 µM (inactive) and the GI50 (TK-10) was > 100 µM (inactive). For the same molecule, the GI50 (MCF7) was 10.5 µM (inactive), the GI50 (SN12C) was > 100 µM (inactive) and the GI50 (NCI/ADR-RES) was > 100 µM (inactive). For the same molecule, the GI50 (OVCAR-8) was 47.2 µM (inactive), the GI50 (SK-MEL-2) was > 100 µM (inactive) and the GI50 (HL-60) was > 100 µM (inactive). The GI50 (HCT-15) was 18.2 µM, the GI50 (NCI-H226) was > 100 µM (inactive) and the GI50 (K562) was 17.1 µM (inactive). For the same molecule, the GI50 (M14) was > 100 µM (inactive), the GI50 (KM12) was 18 µM (inactive) and the GI50 (SF-268) was > 100 µM (inactive). For the same molecule, the GI50 (MDA-MB-231) was > 100 µM (inactive), the GI50 (SF-539) was 51.9 µM (inactive) and the GI50 (EKVX) was > 100 µM (inactive). For the same molecule, the GI50 (HT-29) was 31.8 µM (inactive), the GI50 (HOP-62) was > 100 µM (inactive) and the GI50 (A549) was 53.7 µM (inactive). For the same molecule, the GI50 (HOP-92) was > 100 µM (inactive), the GI50 (HCC 2998) was 21.2 µM (inactive) and the GI50 (RXF 393) was 13.4 µM (inactive). For the same molecule, the GI50 (SK-OV-3) was > 100 µM (inactive), the GI50 (SK-MEL-28) was > 100 µM (inactive) and the GI50 (UACC-257) was > 100 µM (inactive). For the same molecule, the GI50 (NCI-H522) was 48.6 µM (inactive), the GI50 (U-251) was 33 µM (inactive) and the GI50 (OVCAR-4) was 61.9 µM (inactive). The GI50 (PC-3) was 98.2 µM (inactive), the GI50 (HCT-116) was 36.8 µM (inactive) and the GI50 (OVCAR-5) was > 100 µM (inactive). The GI50 (NCI-H460) was 56.9 µM (inactive), the GI50 (SK-MEL-5) was > 100 µM (inactive) and the GI50 (UO-31) was > 100 µM (inactive). For the same molecule, the GI50 (A498) was > 100 µM (inactive), the GI50 (SNB-75) was 93.1 µM (inactive) and the GI50 (MOLT-4) was 18.9 µM (inactive). The GI50 (DU-145) was 28.6 µM (inactive), the GI50 (ACHN) was > 100 µM (inactive) and the GI50 (SR) was 0.671 µM (active). The GI50 (LOX IMVI) was 19.8 µM (inactive) and the GI50 (MDA-N) was 39.5 µM (inactive).
